Measured values as given in US8952024B2, “Herbicidal pyrimidone derivatives” (E I du Pont de Nemours and Company, priority 2009, dated 2015).

Tests used:
Experiment in all cases: Test D pre-/postemergence plant response
Type in all cases: in vivo
Conditions in all cases: Postemergence
[1] = tested on: morningglory (pitted morningglory, Ipomoea lacunosa)
Description: (§1) Seeds of plant species selected from bermudagrass (Cynodon dactylon), Surinam grass (Brachiaria decumbens), large crabgrass (Digitaria sanguinalis), green foxtail (Setaria viridis), goosegrass (Eleusine indica), johnsongrass (Sorghum halepense), kochia (Kochia scoparia), morningglory (pitted morningglory, Ipomoea lacunosa), nutsedge (purple nutsedge, Cyperus rotundus), ragweed (common ragweed, Ambrosia elatior), black mustard (Brassica nigra), guineagrass (Panicum maximum), dallisgrass (Paspalum dilatatum), barnyardgrass (Echinochloa crus-galli), sandbur (southern sandbur, Cenchrus echinatus), sowthistle (common sowthistle, Sonchus oleraceous), prickly sida (Sida spinosa), Italian ryegrass (Lolium multiflorum), purslane (common purslane, Portulaca oleracea), signalgrass (broadleaf signalgrass, Brachiaria platyphylla), groundsel (common groundsel, Senecio vulgaris), chickweed (common chickweed, Stellaria media), dayflower (Virginia (VA) dayflower, Commelina virginica), bluegrass (annual bluegrass, Poa annua), naked crabgrass (Digitaria nuda), itchgrass (Rottboellia cochinchinensis), quackgrass (Elytrigia repens), field bindweed (Convolvulus arvensis), spanishneedles (Bidens bipinnata), mallow (common mallow, Malva sylvestris) and Russian thistle (Salsola kali), were planted into a blend of loam soil and sand and treated preemergence with test chemicals formulated in a non-phytotoxic solvent mixture which included a surfactant. At the same time, plants from these weed species were treated with postemergence applications of the test chemicals formulated in the same manner. Plants ranged in height from 2 to 18 cm (1- to 4-leaf stage) for postemergence treatments.
(§2) Treated plants and controls were maintained in a greenhouse for 14 to 21 days, after which time all species were visually evaluated and compared to controls. Plant response ratings, summarized in Table D, are based on a scale of 0 to 100 where 0 is no effect and 100 is complete control. A dash (-) response means no test result.

[2] = tested on: sandbur (southern sandbur, Cenchrus echinatus)
Description: as §1, §2

[3] = tested on: dallisgrass (Paspalum dilatatum)
Description: as §1, §2

[4] = tested on: large crabgrass (Digitaria sanguinalis)
Description: as §1, §2

[5] = tested on: bluegrass (annual bluegrass, Poa annua)
Description: as §1, §2

[6] = tested on: goosegrass (Eleusine indica)
Description: as §1, §2

[7] = tested on: dayflower (Virginia (VA) dayflower, Commelina virginica)
Description: as §1, §2

[8] = tested on: ragweed (common ragweed, Ambrosia elatior)
Description: as §1, §2

[9] = tested on: Russian thistle (Salsola kali)
Description: as §1, §2

[10] = tested on: black mustard (Brassica nigra)
Description: as §1, §2

[11] = tested on: signalgrass (broadleaf signalgrass, Brachiaria platyphylla)
Description: as §1, §2

[12] = tested on: purslane (common purslane, Portulaca oleracea)
Description: as §1, §2

[13] = tested on: quackgrass (Elytrigia repens)
Description: as §1, §2

[14] = tested on: chickweed (common chickweed, Stellaria media)
Description: as §1, §2

[15] = tested on: Surinam grass (Brachiaria decumbens)
Description: as §1, §2

kochia (Kochia scoparia) = tested on: kochia (Kochia scoparia)
Description: as §1, §2

[16] = 125 g ai/ha, scale 0 to 100 (0 no effect, 100 complete control)
[17] = 250 g ai/ha, scale 0 to 100 (0 no effect, 100 complete control)
[18] = 62 g ai/ha, scale 0 to 100 (0 no effect, 100 complete control)
[19] = 31 g ai/ha, scale 0 to 100 (0 no effect, 100 complete control)

CCCn1c(-c2ccccc2)ncc(C(=O)C2=C(O)C3CCC(C3)C2=O)c1=O (stereo not shown) [Compound 226]
Plant response rating, Morningglory [1, 16]: 70
Plant response rating, Morningglory [1, 17]: 80
Plant response rating, Morningglory [1, 18]: 70
Plant response rating, Sandbur [2, 16]: 75
Plant response rating, Sandbur [2, 17]: 75
Plant response rating, Sandbur [2, 18]: 75
Plant response rating, Dallisgrass [3, 16]: 30
Plant response rating, Dallisgrass [3, 17]: 35
Plant response rating, Dallisgrass [3, 18]: 20
Plant response rating, Crabgrass, Large [4, 16]: 75
Plant response rating, Crabgrass, Large [4, 17]: 85
Plant response rating, Crabgrass, Large [4, 18]: 75
Plant response rating, Bluegrass [5, 19]: 0
Plant response rating, Bluegrass [5, 16]: 10
Plant response rating, Bluegrass [5, 17]: 30
Plant response rating, Bluegrass [5, 18]: 10
Plant response rating, Goosegrass [6, 16]: 70
Plant response rating, Goosegrass [6, 17]: 75
Plant response rating, Goosegrass [6, 18]: 70
Plant response rating, Dayflower, VA [7, 17]: 65
Plant response rating, Dayflower, VA [7, 18]: 50
Plant response rating, Ragweed [8, 16]: 90
Plant response rating, Ragweed [8, 17]: 98
Plant response rating, Ragweed [8, 18]: 90
Plant response rating, Russian Thistle [9, 16]: 40
Plant response rating, Russian Thistle [9, 17]: 70
Plant response rating, Black Mustard [10, 19]: 65
Plant response rating, Black Mustard [10, 16]: 80
Plant response rating, Black Mustard [10, 17]: 85
Plant response rating, Black Mustard [10, 18]: 80
Plant response rating, Signalgrass [11, 16]: 65
Plant response rating, Signalgrass [11, 17]: 65
Plant response rating, Signalgrass [11, 18]: 40
Plant response rating, Purslane [12, 16]: 65
Plant response rating, Purslane [12, 17]: 70
Plant response rating, Purslane [12, 18]: 50
Plant response rating, Quackgrass [13, 16]: 20
Plant response rating, Quackgrass [13, 17]: 35
Plant response rating, Quackgrass [13, 18]: 0
Plant response rating, Chickweed [14, 16]: 35
Plant response rating, Chickweed [14, 17]: 85
Plant response rating, Chickweed [14, 18]: 35
Plant response rating, Surinam Grass [15, 16]: 90
Plant response rating, Surinam Grass [15, 17]: 90
Plant response rating, Surinam Grass [15, 18]: 70
Plant response rating, Kochia (kochia (Kochia scoparia); [16]): 70
Plant response rating, Kochia (kochia (Kochia scoparia); [17]): 70
Plant response rating, Kochia (kochia (Kochia scoparia); [18]): 60

COCCCn1c(-c2cc(F)cc(F)c2)ncc(C(=O)C2=C(O)C3CCC(C3)C2=O)c1=O (stereo not shown) [Compound 244]
Plant response rating, Morningglory ([1]; 31 g ai/ha, scale 0 to 100): 65
Plant response rating, Morningglory [1, 16]: 75
Plant response rating, Morningglory [1, 17]: 75
Plant response rating, Morningglory [1, 18]: 70
Plant response rating, Sandbur ([2]; 31 g ai/ha, scale 0 to 100): 70
Plant response rating, Sandbur [2, 16]: 75
Plant response rating, Sandbur [2, 17]: 75
Plant response rating, Sandbur [2, 18]: 70
Plant response rating, Dallisgrass ([3]; 31 g ai/ha, scale 0 to 100): 40
Plant response rating, Dallisgrass [3, 16]: 75
Plant response rating, Dallisgrass [3, 17]: 80
Plant response rating, Dallisgrass [3, 18]: 75
Plant response rating, Crabgrass, Large ([4]; 31 g ai/ha, scale 0 to 100): 70
Plant response rating, Crabgrass, Large [4, 16]: 75
Plant response rating, Crabgrass, Large [4, 17]: 75
Plant response rating, Crabgrass, Large [4, 18]: 75
Plant response rating, Bluegrass ([5]; 31 g ai/ha, scale 0 to 100): 0
Plant response rating, Bluegrass [5, 16]: 10
Plant response rating, Bluegrass [5, 17]: 20
Plant response rating, Bluegrass [5, 18]: 10
Plant response rating, Goosegrass ([6]; 31 g ai/ha, scale 0 to 100): 50
Plant response rating, Goosegrass [6, 16]: 70
Plant response rating, Goosegrass [6, 17]: 70
Plant response rating, Goosegrass [6, 18]: 60
Plant response rating, Dayflower, VA ([7]; 31 g ai/ha, scale 0 to 100): 30
Plant response rating, Dayflower, VA [7, 16]: 65
Plant response rating, Dayflower, VA [7, 17]: 70
Plant response rating, Dayflower, VA [7, 18]: 50
Plant response rating, Ragweed ([8]; 31 g ai/ha, scale 0 to 100): 65
Plant response rating, Ragweed [8, 16]: 80
Plant response rating, Ragweed [8, 17]: 85
Plant response rating, Ragweed [8, 18]: 70
Plant response rating, Russian Thistle ([9]; 31 g ai/ha, scale 0 to 100): 20
Plant response rating, Russian Thistle [9, 16]: 60
Plant response rating, Russian Thistle [9, 17]: 65
Plant response rating, Russian Thistle [9, 18]: 40
Plant response rating, Black Mustard ([10]; 31 g ai/ha, scale 0 to 100): 50
Plant response rating, Black Mustard [10, 16]: 95
Plant response rating, Black Mustard [10, 17]: 98
Plant response rating, Black Mustard [10, 18]: 75
Plant response rating, Signalgrass ([11]; 31 g ai/ha, scale 0 to 100): 20
Plant response rating, Signalgrass [11, 16]: 25
Plant response rating, Signalgrass [11, 17]: 35
Plant response rating, Signalgrass [11, 18]: 20
Plant response rating, Purslane ([12]; 31 g ai/ha, scale 0 to 100): 25
Plant response rating, Purslane [12, 16]: 50
Plant response rating, Purslane [12, 17]: 50
Plant response rating, Purslane [12, 18]: 50
Plant response rating, Quackgrass ([13]; 31 g ai/ha, scale 0 to 100): 20
Plant response rating, Quackgrass [13, 16]: 50
Plant response rating, Quackgrass [13, 17]: 65
Plant response rating, Quackgrass [13, 18]: 40
Plant response rating, Chickweed ([14]; 31 g ai/ha, scale 0 to 100): 15
Plant response rating, Chickweed [14, 16]: 40
Plant response rating, Chickweed [14, 17]: 60
Plant response rating, Chickweed [14, 18]: 20
Plant response rating, Surinam Grass ([15]; 31 g ai/ha, scale 0 to 100): 75
Plant response rating, Surinam Grass [15, 16]: 80
Plant response rating, Surinam Grass [15, 17]: 80
Plant response rating, Surinam Grass [15, 18]: 75
Plant response rating, Kochia (kochia (Kochia scoparia); 31 g ai/ha, scale 0 to 100): 25
Plant response rating, Kochia (kochia (Kochia scoparia); [16]): 50
Plant response rating, Kochia (kochia (Kochia scoparia); [17]): 65
Plant response rating, Kochia (kochia (Kochia scoparia); [18]): 50
